According to ChEMBL document CHEMBL1139512, “Further studies on the interaction of the 5-hydroxytryptamine3 (5-HT3) receptor with arylpiperazine ligands. development of a new 5-HT3 receptor ligand showing potent acetylcholinesterase inhibitory properties” (J Med Chem, 2005):

biological target: T1, Cholinesterase (Homo sapiens, UniProt P06276)
T1 sequence (P06276 whole entry): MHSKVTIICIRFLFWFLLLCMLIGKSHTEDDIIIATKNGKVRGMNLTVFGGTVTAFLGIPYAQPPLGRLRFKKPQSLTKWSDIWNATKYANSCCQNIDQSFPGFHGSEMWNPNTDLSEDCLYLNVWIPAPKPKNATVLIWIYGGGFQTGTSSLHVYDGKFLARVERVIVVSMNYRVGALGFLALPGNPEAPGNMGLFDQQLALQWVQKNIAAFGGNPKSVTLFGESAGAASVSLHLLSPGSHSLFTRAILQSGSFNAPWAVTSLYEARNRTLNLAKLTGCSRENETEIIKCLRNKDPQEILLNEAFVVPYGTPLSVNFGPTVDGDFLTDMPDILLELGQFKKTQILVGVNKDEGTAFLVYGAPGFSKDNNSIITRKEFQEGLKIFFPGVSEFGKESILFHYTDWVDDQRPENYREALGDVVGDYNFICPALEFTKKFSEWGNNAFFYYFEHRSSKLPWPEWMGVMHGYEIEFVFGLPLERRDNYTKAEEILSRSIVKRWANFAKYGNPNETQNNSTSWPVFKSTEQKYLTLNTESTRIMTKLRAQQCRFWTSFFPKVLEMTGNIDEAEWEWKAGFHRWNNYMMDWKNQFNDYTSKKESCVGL

| Structure (SMILES) | IC50 [nM] |
| --- | --- |
| Cc1c(N2CCN(C)CC2)nc2ccccc2c1C(=O)N(C)Cc1ccccc1 | > 10000 |
| CCOC(=O)c1c(C)c(N2CCN(C)CC2)nc2ccccc12 | > 10000 |

biological target: T2, Acetylcholinesterase (Homo sapiens, UniProt P22303)
T2 sequence (P22303 whole entry): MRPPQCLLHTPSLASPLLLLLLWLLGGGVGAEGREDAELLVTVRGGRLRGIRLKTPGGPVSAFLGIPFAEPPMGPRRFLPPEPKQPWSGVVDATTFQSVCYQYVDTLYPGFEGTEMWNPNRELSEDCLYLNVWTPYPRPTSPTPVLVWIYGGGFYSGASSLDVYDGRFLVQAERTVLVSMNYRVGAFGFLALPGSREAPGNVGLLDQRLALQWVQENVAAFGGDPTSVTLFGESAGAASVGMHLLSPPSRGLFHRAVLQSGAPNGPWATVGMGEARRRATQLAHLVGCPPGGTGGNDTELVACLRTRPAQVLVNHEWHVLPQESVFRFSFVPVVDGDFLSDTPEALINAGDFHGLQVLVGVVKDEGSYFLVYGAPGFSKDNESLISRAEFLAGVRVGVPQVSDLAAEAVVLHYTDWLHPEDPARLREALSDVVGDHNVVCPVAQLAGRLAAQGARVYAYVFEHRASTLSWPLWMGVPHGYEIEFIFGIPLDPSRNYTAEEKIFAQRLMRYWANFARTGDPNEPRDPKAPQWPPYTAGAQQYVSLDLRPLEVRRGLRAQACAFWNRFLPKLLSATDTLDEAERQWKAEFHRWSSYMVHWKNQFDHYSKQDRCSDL
Description: (§1) Inhibitory concentration against human acetylcholinesterase

| Structure (SMILES) | IC50 [nM] |
| --- | --- |
| Cc1c(N2CCN(C)CC2)nc2ccccc2c1C(=O)NCCCCCCCNc1c2c(nc3ccccc13)CCCC2 | 4.1 |
| Cc1c(Cl)nc2ccccc2c1C(=O)NCCCCCCCNc1c2c(nc3ccccc13)CCCC2 | 3 |

biological target: T2, Acetylcholinesterase; remark: another data set of the same source
Description: as §1

| Structure (SMILES) | IC50 [nM] |
| --- | --- |
| Cc1c(N2CCN(C)CC2)nc2ccccc2c1C(=O)N(C)Cc1ccccc1 | > 10000 |
| CCOC(=O)c1c(C)c(N2CCN(C)CC2)nc2ccccc12 | > 10000 |

biological target: T1, Cholinesterase; assay: Inhibitory concentration against butyrylcholinesterase

| Structure (SMILES) | IC50 [nM] |
| --- | --- |
| Cc1c(N2CCN(C)CC2)nc2ccccc2c1C(=O)NCCCCCCCNc1c2c(nc3ccccc13)CCCC2 | 40 |
| Cc1c(Cl)nc2ccccc2c1C(=O)NCCCCCCCNc1c2c(nc3ccccc13)CCCC2 | 32 |

biological target: T3, Serotonin 3 (5-HT3) receptor (Rattus norvegicus, UniProt P35563+Q9JJ16)
T3 sequence (P35563 whole entry): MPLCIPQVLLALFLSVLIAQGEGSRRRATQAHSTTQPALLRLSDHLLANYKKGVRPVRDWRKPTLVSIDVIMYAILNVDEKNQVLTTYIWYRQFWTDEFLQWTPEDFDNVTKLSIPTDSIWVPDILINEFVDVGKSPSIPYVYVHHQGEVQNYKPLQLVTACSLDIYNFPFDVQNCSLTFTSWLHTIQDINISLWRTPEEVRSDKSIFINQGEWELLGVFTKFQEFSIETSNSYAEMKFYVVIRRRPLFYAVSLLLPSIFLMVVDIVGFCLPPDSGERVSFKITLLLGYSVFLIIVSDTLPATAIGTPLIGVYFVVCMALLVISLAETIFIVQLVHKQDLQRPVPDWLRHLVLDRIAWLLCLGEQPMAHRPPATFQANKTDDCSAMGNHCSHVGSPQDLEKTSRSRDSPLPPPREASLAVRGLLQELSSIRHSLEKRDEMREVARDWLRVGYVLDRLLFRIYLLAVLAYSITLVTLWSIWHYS
T3 sequence (Q9JJ16 whole entry): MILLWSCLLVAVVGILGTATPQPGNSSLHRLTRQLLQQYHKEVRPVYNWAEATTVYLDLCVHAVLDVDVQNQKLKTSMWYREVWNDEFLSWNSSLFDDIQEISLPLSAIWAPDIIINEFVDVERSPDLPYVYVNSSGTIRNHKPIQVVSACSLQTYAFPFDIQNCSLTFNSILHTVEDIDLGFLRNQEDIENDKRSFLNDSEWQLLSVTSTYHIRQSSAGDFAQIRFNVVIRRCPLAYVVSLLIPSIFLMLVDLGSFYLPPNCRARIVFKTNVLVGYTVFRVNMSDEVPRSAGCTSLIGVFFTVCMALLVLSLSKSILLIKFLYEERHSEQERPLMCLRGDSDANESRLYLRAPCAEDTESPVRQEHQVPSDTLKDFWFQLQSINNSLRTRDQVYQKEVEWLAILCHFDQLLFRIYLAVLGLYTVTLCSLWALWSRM

| Structure (SMILES) | Ki [nM] |
| --- | --- |
| Cc1c(N2CCN(C)CC2)nc2ccccc2c1C(=O)N(C)Cc1ccccc1 | 0.55 |
| Cc1c(N2CCN(C)CC2)nc2ccccc2c1C(=O)N(C)c1ccc(Cl)cc1 | 13 |
| CN1CCN(c2nc3ccccc3c3c2CN(C)C3=O)CC1 | 2.1 |
| CCN1Cc2c(N3CCN(C)CC3)nc3ccccc3c2C1=O | 3 |
| CCCCCCN(CCCCCC)C(=O)c1c(C)c(N2CCN(C)CC2)nc2ccccc12 | 188 |
| CCCCN(CCCC)C(=O)c1c(C)c(N2CCN(C)CC2)nc2ccccc12 | 0.78 |
| CN1CCN(c2nc3ccccc3c3c2CN(Cc2ccccc2)C3=O)CC1 | 6.2 |
| Cc1c(N2CCN(C)CC2)nc2ccccc2c1C(=O)N(C(C)C)C(C)C | 2.2 |
| Cc1c(N2CCN(C)CC2)nc2ccccc2c1C(=O)c1ccccc1 | 0.84 |
| CCOC(=O)c1cc(N2CCN(C)CC2)nc2ccccc12 | 0.85 |
| CCCc1c(N2CCN(C)CC2)nc2ccccc2c1C(=O)N(CC)CC | 0.92 |
| Cc1c(N2CCN(C)CC2)nc2ccccc2c1C(=O)N1CCCC1 | 1.6 |
| CCCN(CCC)C(=O)c1c(CC)c(N2CCN(C)CC2)nc2ccccc12 | 1.1 |
| CCCc1c(N2CCN(C)CC2)nc2ccccc2c1C(=O)N(CCC)CCC | 1.2 |
| Cc1c(N2CCN(C)CC2)nc2ccccc2c1C(=O)NCCCCCCCNc1c2c(nc3ccccc13)CCCC2 | 5.6 |
| CN1CCN(c2nc3ccccc3c3c2COC3=O)CC1 | 2.4 |
| CCN(CC)C(=O)c1cc(N2CCN(C)CC2)nc2ccccc12 | 1.6 |
| CCCN1Cc2c(N3CCN(C)CC3)nc3ccccc3c2C1=O | 3.6 |
| CN1CCN(c2nc3ccccc3c(CO)c2CO)CC1 | 2.7 |
| CCC(C)N1Cc2c(N3CCN(C)CC3)nc3ccccc3c2C1=O (stereo not drawn) | 4.2 |
| CCCc1c(N2CCN(C)CC2)nc2ccccc2c1C(=O)N(C)Cc1ccccc1 | 14 |
| CCc1c(N2CCN(C)CC2)nc2ccccc2c1C(=O)N(C)Cc1ccccc1 | 10 |
| CCOC(=O)c1c(C)c(N2CCN(C)CC2)nc2ccccc12 | 0.43 |
| CCCCCN(CCCCC)C(=O)c1c(C)c(N2CCN(C)CC2)nc2ccccc12 | 19 |

The next lines start with the values.

| Ki [nM] | Structure (SMILES) |
| --- | --- |
| 0.11 | CCCN(CCC)C(=O)c1c(C)c(N2CCN(C)CC2)nc2ccccc12 |
| 0.41 | CN1CCN(c2cc(C(=O)N(C)Cc3ccccc3)c3ccccc3n2)CC1 |
| 0.45 | C#CCN(C)C(=O)c1c(C)c(N2CCN(C)CC2)nc2ccccc12 |
| 0.21 | CCOC(=O)c1c(CC)c(N2CCN(C)CC2)nc2ccccc12 |
| 0.68 | CCCN(CCC)C(=O)c1cc(N2CCN(C)CC2)nc2ccccc12 |
| 0.17 | CCOC(=O)c1c(N2CCN(C)CC2)nc2ccccc2c1C |
| 0.51 | CCc1c(N2CCN(C)CC2)nc2ccccc2c1C(=O)N(CC)CC |
| 0.37 | CCN(CC)C(=O)c1c(C)c(N2CCN(C)CC2)nc2ccccc12 |
| 0.56 | CCOC(=O)c1c(C)c(N2CCNCC2)nc2ccccc12 |
| 0.08 | CCCc1c(N2CCN(C)CC2)nc2ccccc2c1C(=O)OCC |
| 0.24 | CN1CCN(c2nc3ccccc3c3c2CCC3)CC1 |
